A short description of the data set: Iontophoretic transdermal flux of metoclopramide through human cadaver skin (heat-stripped epidermis, two-compartment permeation test cell). To be noted: for Ratio of Average Flux-to-Power: power from voltage at 3.75 hours. Format: in vitro ADME. As for the experimental part:
The transdermal flux of metoclopramide HC1 through samples of human cadaver back skin was measured using a polycarbonate test cell in which the skin sample to be tested is secured between a donor compartment and a receptor compartment. […] The area of the skin samples available for transport was 1.26 cm^2. The test cell device was maintained at a temperature of 32° C. using an aluminum block heat exchanger. An anode comprising a disk of silver foil having a thickness of 0.025 mm was present in the donor compartment while a cathode comprising a sintered disk of powdered silver metal and silver chloride was present in the receptor compartment. Thus, the reduction of silver ions to silver metal occurred at the cathode, while the oxidation of silver to silver ions took place at the anode.
Human cadaver skin was used for the permeation studies. Before securing the skin samples between the donor and the receptor compartment of the test cell, the skin was first heat-stripped by immersing the skin sample in water maintained at 60° C. for 90 seconds allowing the epidermis layer to be separated from the dermis. Circular epidermis samples having a diameter of 2.22 cm were cut using a gasket cutting punch. The epidermis samples were then mounted in the permeation test cell with the stratum corneum side facing the donor compartment.
The electrodes of the test cell were then connected to a Model 363 Potentiostat/Galvanostat, made by EG&G Princeton Applied Research, Princeton, NJ, which supplied a constant level of direct current of 126 μA or 100 μA/cm^2.
The test cell was in operation for four hours with each skin sample. During operation, metoclopramide was iontophoretically delivered from the donor solution through the cadaver skin into the receptor solution. The receptor solution was sampled once every hour over the four hour period. The entire volume (2 ml) of receptor solution was collected and replaced with fresh solution at each sampling point. The metoclopramide concentration in the receptor solution was determined by UV absorbance at 310 nm using a spectrophotometer manufactured by Hewlett Packard, of Palo Alto, CA, Model No. 8452A. Each flux data point shown in FIG. 4 was an average value from three skin specimens, all three specimens having been taken from the same cadaver.
The voltage for each skin sample was monitored throughout the experiment. A representative voltage was measured at 3.75 hours after start of operation for each skin sample and is recorded in Table 2. The power was calculated by multiplying the measured voltage at 3.75 hours by the applied current (i.e., 100 μA/cm^2).
The same equipment and procedures described in Example 1 were used to test human cadaver skin taken from the following sites of the same cadaver tested in Example 1: abdomen, upper arm, forearm, chest and hip/thigh. The average flux of metoclopramide through these skin sites is also plotted in FIG. 4. […] In general, the flux of metoclopramide through back skin was about 50% to 150% higher than the metoclopramide flux through the other tested skin sites.

“And” between values parts separate entries of the source, which are not always exact repeats. Equal values may be shown once.

Take `CCN(CC)CCNC(=O)c1cc(Cl)c(N)cc1OC` [metoclopramide]: the “Flux through back skin, increase over flux through the other tested skin sites” value is 50-150% and the “Flux through human back skin compared with the other tested skin sites (in words)” value is “significantly higher flux”. Moreover, the “Average Ratio of Average Flux-to-Power” value (Abdomen skin, mean of 3 samples) turned out to be 336 μg/cm^2 · hr .multido. The “Ratio of Average Flux-to-Power” value (Abdomen skin) was 347 μg/cm^2 · hr .multido and 277 μg/cm^2 · hr .multido and 384 μg/cm^2 · hr .multido. Further, the “Average Ratio of Average Flux-to-Power” value (Back skin, mean of 6 samples) came out at 431 μg/cm^2 · hr .multido. In addition, the “Average Ratio of Average Flux-to-Power” value (Chest skin, mean of 3 samples) was 204 μg/cm^2 · hr .multido. In addition, the “Ratio of Average Flux-to-Power” value (Chest skin) is 205 μg/cm^2 · hr .multido and 196 μg/cm^2 · hr .multido and 211 μg/cm^2 · hr .multido. In addition, for the setting “Forearm skin, mean of 3 samples”, the “Average Ratio of Average Flux-to-Power” value was 230 μg/cm^2 · hr .multido. Further, the “Average Ratio of Average Flux-to-Power” value (Hip/Thigh skin, mean of 3 samples) amounted to 222 μg/cm^2 · hr .multido. In addition, the “Ratio of Average Flux-to-Power” value (Hip/Thigh skin) was 164 μg/cm^2 · hr .multido and 305 μg/cm^2 · hr .multido and 197 μg/cm^2 · hr .multido. Further, under “Upper Arm skin, mean of 2 samples”, the “Average Ratio of Average Flux-to-Power” value worked out at 307 μg/cm^2 · hr .multido. Besides, the “Average ratio of average flux-to-power, ranking of skin sites (in words)” value (back skin, followed by the abdomen and upper arm, Table 2) is “highest average ratio of average flux-to-power”.

The values are drawn from patent US5167616A, “Iontophoretic delivery method” (priority 1989, dated 1992).
